Test results as given in patent publication US7511061B2, “Triazoles as farnesyl transferase inhibitors” (Janssen Pharmaceutica N.V., priority 1999, dated 2009).

molecular target: farnesyl protein transferase (FPTase) (Homo sapiens, UniProt P49354+P49356); assay: In vitro assay for inhibition of farnesyl protein transferase; format: biochemical; details: test dose of 10^−7 M
Description: An in vitro assay for inhibition of farnesyl transferase was performed essentially as described in WO 98/40383, pages 33-34.

inhibition at 0.1 µM [%]	SMILES
≥ 10	N#Cc1ccc(Cn2cnnc2CN(Cc2ccc(F)cc2F)C(=O)c2ccc(Br)s2)cc1 [compound 218]
≥ 10	Cc1ccc(C(=O)N(Cc2ccc(F)cc2F)Cc2nncn2Cc2ccc(C#N)cc2)cc1-c1cc(Cl)ccc1Cl [compound 221]
≥ 10	Cc1ccc(C(=O)N(Cc2ccc(F)cc2F)Cc2nncn2Cc2ccc(C#N)cc2)cc1-c1ccc(F)c(Cl)c1 [compound 224]
≥ 10	N#Cc1ccc(Cn2cnnc2CN(Cc2ccc(F)cc2F)C(=O)c2cccc(-c3cccc(C(F)(F)F)c3)c2)cc1 [compound 227]
≥ 10	N#Cc1ccc(Cn2cnnc2CN(Cc2ccc(F)cc2F)C(=O)c2ccc(Br)o2)cc1 [compound 229]
≥ 10	N#Cc1ccc(Cn2cnnc2CN(Cc2ccc(F)cc2F)C(=O)/C=C/c2cccc(C(F)(F)F)c2)cc1 [compound 231]
≥ 10	N#Cc1ccc(Cn2cnnc2CN(Cc2ccc(F)cc2F)C(=O)c2cccc(-c3ccsc3)c2)cc1 [compound 239]
≥ 10	N#Cc1ccc(Cn2cnnc2CN(Cc2ccc(F)cc2F)C(=O)/C=C/c2cccc(Br)c2)cc1 [compound 241]
≥ 10	Cc1ccccc1-c1cccc(C(=O)N(Cc2ccc(F)cc2F)Cc2nncn2Cc2ccc(C#N)cc2)c1 [compound 242]
≥ 10	N#Cc1ccc(Cn2cnnc2CN(Cc2ccc(F)cc2F)C(=O)c2cccc(Br)c2)cc1 [compound 243]
≥ 10	N#Cc1ccc(Cn2cnnc2CN(Cc2ccc(F)cc2F)C(=O)/C=C/c2cc(F)cc(C(F)(F)F)c2)cc1 [compound 245]
≥ 10	N#Cc1ccc(Cn2cnnc2CN(Cc2ccc(F)cc2F)C(=O)c2cccc(Cl)c2)cc1 [compound 246]
≥ 10	N#Cc1ccc(Cn2cnnc2CN(Cc2ccc(F)cc2F)C(=O)/C=C/c2ccccc2Cl)cc1 [compound 249]
≥ 10	N#Cc1ccc(Cn2cnnc2CN(Cc2ccc(F)cc2F)C(=O)c2cc3ccccc3oc2=O)cc1 [compound 252]
≥ 10	Cc1cccc(C(=O)N(Cc2ccc(F)cc2F)Cc2nncn2Cc2ccc(C#N)cc2)c1 [compound 253]
≥ 10	Cc1cccc(/C=C/C(=O)N(Cc2ccc(F)cc2F)Cc2nncn2Cc2ccc(C#N)cc2)c1 [compound 254]
≥ 10	CC1=C(C(=O)N(Cc2ccc(F)cc2F)Cc2nncn2Cc2ccc(C#N)cc2)Cc2ccccc21 [compound 258]
≥ 10	N#Cc1ccc(Cn2cnnc2CN(Cc2ccc(F)cc2F)C(=O)c2cccc(-c3ccccc3C(F)(F)F)c2)cc1 [compound 259]
≥ 10	Cc1ccccc1-c1cc(C(=O)N(Cc2ccc(F)cc2F)Cc2nncn2Cc2ccc(C#N)cc2)ccc1C [compound 260]
≥ 10	Cc1ccc(C(=O)N(Cc2ccc(F)cc2F)Cc2nncn2Cc2ccc(C#N)cc2)cc1C [compound 262]
≥ 10	N#Cc1ccc(Cn2cnnc2CN(Cc2ccc(F)cc2F)C(=O)/C(=C/c2ccccc2)c2ccccc2)cc1 [compound 266]
≥ 10	COc1ccc2oc(C(=O)N(Cc3ccc(F)cc3F)Cc3nncn3Cc3ccc(C#N)cc3)cc2c1 [compound 268]
≥ 10	N#Cc1ccc(Cn2cnnc2CN(Cc2ccc(F)cc2F)C(=O)c2cc3ccccc3s2)cc1 [compound 270]

Further lines, the compound ahead of its results:

SMILES	inhibition at 0.1 µM [%]
N#Cc1ccc(Cn2cnnc2CN(CCc2ccc(Br)cc2)C(=O)c2ccc(Br)o2)cc1 [compound 219]	≥ 10
COc1cc(C(=O)N(CCc2ccc(Br)cc2)Cc2nncn2Cc2ccc(C#N)cc2)nc2ccccc12 [compound 220]	≥ 10
N#Cc1ccc(Cn2cnnc2CN(CCc2ccc(Br)cc2)C(=O)c2cccc(Br)c2)cc1 [compound 222]	≥ 10
N#Cc1ccc(Cn2cnnc2CN(CCc2ccc(Br)cc2)C(=O)c2cc3ccccc3s2)cc1 [compound 223]	≥ 10
Cc1ccc(C)c(/C=C/C(=O)N(Cc2ccc(F)cc2F)Cc2nncn2Cc2ccc(C#N)cc2)c1 [compound 225]	≥ 10
N#Cc1ccc(Cn2cnnc2CN(Cc2cc(C(F)(F)F)cc(C(F)(F)F)c2)C(=O)c2ccc3ccccc3n2)cc1 [compound 226]	≥ 10
Cc1cccc(Cc2nnc(CN(c3ccc(Oc4ccccc4)cc3)S(=O)(=O)c3ccc(-c4ccc(F)c(Cl)c4)cc3C)n2Cc2cccc(C)n2)n1 [compound 230]	≥ 10
N#Cc1ccc(Cn2cnnc2CN(Cc2ccccc2)C(=O)c2ccc3ccccc3n2)cc1 [compound 232]	≥ 10
Cc1ccc(C(=O)N(CCc2ccc(Br)cc2)Cc2nncn2Cc2ccc(C#N)cc2)cc1C [compound 233]	≥ 10
N#Cc1ccc(Cn2cnnc2CN(Cc2c(F)cccc2F)c2ccc(Oc3ccccc3)cc2)cc1 [compound 234]	≥ 10
COc1ccc(CCN(Cc2nncn2Cc2ccc(C#N)cc2)C(=O)c2ccc3ccccc3n2)cc1 [compound 236]	≥ 10
COc1ccc2oc(C(=O)N(CCc3ccc(Br)cc3)Cc3nncn3Cc3ccc(C#N)cc3)cc2c1 [compound 237]	≥ 10
N#Cc1ccc(Cn2cnnc2CN(Cc2c(F)ccc(F)c2F)c2ccc(Oc3ccccc3)cc2)cc1 [compound 238]	≥ 10
N#Cc1ccc(Cn2cnnc2CN(CCc2ccc(Br)cc2)C(=O)c2ccc3c(c2)OCO3)cc1 [compound 244]	≥ 10
N#Cc1ccc(Cn2cnnc2CN(Cc2ccco2)C(=O)c2ccc3ccccc3n2)cc1 [compound 247]	≥ 10
N#Cc1ccc(Cn2cnnc2CN(C(=O)c2ccc3ccccc3n2)c2ccc(N3CCOCC3)cc2)cc1 [compound 248]	≥ 10
N#Cc1ccc(Cn2cnnc2CN(Cc2ccc(F)cc2F)C(=O)/C=C/c2ccc(Cl)c(Cl)c2)cc1 [compound 250]	≥ 10
N#Cc1ccc(Cn2cnnc2CN(CCc2ccc(Br)cc2)C(=O)c2cc3ccccc3o2)cc1 [compound 251]	≥ 10
COC(=O)c1cc(C)nc(N(Cc2nnc[nH]2)Cc2ccc(F)cc2F)[n+]1Cc1ccc(C#N)cc1 [compound 255]	≥ 10
N#Cc1ccc(Cn2cnnc2CN(C(=O)c2ccc3ccccc3n2)c2ccc(Oc3ccccc3)cc2)cc1 [compound 256]	≥ 10
N#Cc1ccc(Cn2cnnc2CN(c2ccc(Oc3ccccc3)cc2)c2nccc(C(F)(F)F)n2)cc1 [compound 257]	≥ 10
N#Cc1ccc(Cn2cnnc2CN(CCC(c2ccccc2)c2ccccc2)C(=O)C2CCN(S(=O)(=O)c3ccc(F)cc3)CC2)cc1 [compound 261]	≥ 10
N#Cc1ccc(Cn2cnnc2CN(CCc2ccc(Cl)cc2)C(=O)c2ccc3ccccc3n2)cc1 [compound 264]	≥ 10
N#Cc1ccc(Cn2cnnc2CN(CCc2ccc(Br)cc2)C(=O)c2ccc3ccccc3c2)cc1 [compound 265]	≥ 10
COc1ccccc1/C=C/C(=O)N(Cc1ccc(F)cc1F)Cc1nncn1Cc1ccc(C#N)cc1 [compound 267]	≥ 10
N#Cc1ccc(Cn2cnnc2CN(CCc2ccc(Br)cc2)C(=O)c2ccc3ccccc3n2)cc1 [compound 269]	≥ 10
N#Cc1ccc(Cn2cnnc2CN(CCSCc2c(F)cccc2Cl)C(=O)c2ccc3ccccc3n2)cc1 [compound 271]	≥ 10
